In general, pEC50 refers to the EC50 on a negative log10 scale, so that one unit is a factor of ten.

Here are results for 13 compounds from patent US9540376B2, “Hexahydrodiazepinoquinolines carrying a substituted alkyl radical” (priority 2014, dated 2017).

pEC50: −log10 of the molar value. Some results are limits rather than exact numbers.

Common to all, as to assay type: cell-based
The target of one assay is T1, human 5-HT2B receptor (Homo sapiens, UniProt P41595).
T1 construct: expressed in transfected cells; host or cells: CHO-FlpIn
T1 sequence (P41595 whole entry): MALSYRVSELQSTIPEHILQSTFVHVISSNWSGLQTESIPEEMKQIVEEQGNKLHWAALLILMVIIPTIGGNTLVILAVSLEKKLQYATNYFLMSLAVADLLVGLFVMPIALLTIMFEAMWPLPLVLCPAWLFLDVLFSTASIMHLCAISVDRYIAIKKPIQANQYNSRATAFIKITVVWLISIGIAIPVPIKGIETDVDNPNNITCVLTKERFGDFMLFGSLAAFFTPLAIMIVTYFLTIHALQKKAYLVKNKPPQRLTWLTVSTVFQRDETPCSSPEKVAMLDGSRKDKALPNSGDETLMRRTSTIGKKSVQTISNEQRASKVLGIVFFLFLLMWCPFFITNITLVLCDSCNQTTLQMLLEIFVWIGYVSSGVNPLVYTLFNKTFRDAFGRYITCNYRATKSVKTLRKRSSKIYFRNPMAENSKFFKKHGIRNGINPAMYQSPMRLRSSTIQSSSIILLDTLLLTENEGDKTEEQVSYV
In words: Human 5-HT2B functional assay (calcium mobilisation in CHO-FlpIn cells). Particulars: for pEC50: potency in functional assay, agonism (first addition), calcium mobilisation; for Selectivity (based on agonism) EC50 5-HT2B/EC50 5-HT2C: ratio EC50 5-HT2B/EC50 5-HT2C; for Emax: read-out: % efficacy (5-HT2B), relative efficacy vs maximal effect of serotonin alone (100%). How it is done:
3. Human 5-HT2B Functional Assay
Cells were seeded into sterile black 384-well plates with clear bottom at 30,000 cells/well in a volume of 25 μl and grown overnight at 37° C., in 5% CO2 in tissue culture medium (“CHO-S-SFM II” by Invitrogen), containing 1% dialysed FCS and 50 μg/ml gentamicin (Invitrogen). On the next morning, medium was replaced by a serum free version of the same tissue culture medium for a further incubation for 4 hours at 37° C. and in 5% CO2. Cells were then loaded with a fluorescent calcium-sensitive dye in the presence of 0.07% probenecid for an hour at 37° C., according to the manufacturer's protocol (Ca5-Assay Kit, Molecular Devices), followed by an additional 60 min incubation at room temperature. Serial compound dilutions (final concentrations of 10^−10 to 10^−5M, prepared in HBSS+50 mM HEPES) were first added to the cells alone (“first addition” to assess agonism on the 5-HT2B receptor), then after 8 min, serotonin was added to the same wells at a final concentration of 10^−8 M (“second addition” to see potential antagonistic effect) and the maximal calcium response was determined using a FLIPR® Tetra instrument (Molecular Devices) in each of the two steps. The relative efficacy of the compounds was calculated as a percentage of the maximal effect induced by serotonin alone (defined as 100%). To determine EC50/IC50 values, concentration-response curves were fitted using a four-parameter logistic equation (IDBS Biobook™). Kb values were calculated from IC50 values, according to Cheng & Prusoff.
For orientation: Calcium flux is commonly read through the fluorescence of an indicator in the cells.

A further assay deals with T2, human 5-HT2A receptor (Homo sapiens, UniProt P28223).
T2 construct: expressed in transfected cells; host or cells: CHO-K1
T2 sequence (P28223 whole entry): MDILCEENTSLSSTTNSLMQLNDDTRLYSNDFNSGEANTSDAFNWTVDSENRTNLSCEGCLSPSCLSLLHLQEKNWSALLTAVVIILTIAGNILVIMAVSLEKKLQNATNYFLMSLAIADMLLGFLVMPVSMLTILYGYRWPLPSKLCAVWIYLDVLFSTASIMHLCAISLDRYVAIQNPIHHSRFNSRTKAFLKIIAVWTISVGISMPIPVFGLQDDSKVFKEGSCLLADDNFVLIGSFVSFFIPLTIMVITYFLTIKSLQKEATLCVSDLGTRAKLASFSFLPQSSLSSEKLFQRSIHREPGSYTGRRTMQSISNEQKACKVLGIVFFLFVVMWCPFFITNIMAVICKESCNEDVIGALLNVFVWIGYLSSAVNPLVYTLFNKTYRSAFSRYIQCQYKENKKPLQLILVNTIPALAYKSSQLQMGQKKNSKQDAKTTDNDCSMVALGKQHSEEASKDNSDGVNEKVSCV
In words: Human 5-HT2A functional assay (calcium mobilisation in CHO-K1 cells). Particulars: for pEC50: potency in functional assay, agonism (first addition), calcium mobilisation; for Emax: CHO-K1, read-out: % efficacy (5-HT2A); for Selectivity (based on agonism) EC50 5-HT2A/EC50 5-HT2C: ratio EC50 5-HT2A/EC50 5-HT2C. As to the method:
2. Human 5-HT2A Functional Assay
Cells were seeded into sterile black 384-well plates with clear bottom at 25,000 cells/well in a volume of 25 μl and grown for 5-6 hours at 37° C., in 5% CO2 in tissue culture medium (“Ultra CHO” by LONZA), containing 1% dialysed FCS and 50 μg/ml gentamicin (Invitrogen). After this incubation, medium was replaced by a serum free version of the same tissue culture medium followed by incubation overnight at 37° C. and in 5% CO2. Cells were then loaded with a fluorescent calcium-sensitive dye in the presence of 0.07% probenecid for an hour at 37° C., according to the manufacturer's protocol (Ca5-Assay Kit, Molecular Devices), followed by an additional 60 min incubation at room temperature. […] The relative efficacy of the compounds was calculated as a percentage of the maximal effect induced by serotonin alone (defined as 100%). To determine EC50/IC50 values, concentration-response curves were fitted using a four-parameter logistic equation (IDBS Biobook™). Kb values were calculated from IC50 values, according to Cheng & Prusoff.

The next assay has as its target T3, 5-HT2C receptor (Homo sapiens, UniProt P28335).
T3 construct: host or cells: U2OS
In words: Human 5-HT2C functional assay (beta-arrestin2 recruitment, U2OS_HTR2C_β-Arrestin cells). As to conditions: for pEC50: potency in functional assay, beta-arrestin2 recruitment, 1.5 h incubation; for Emax: read-out: % efficacy (5-HT2C), relative efficacy vs 10 μM 5-HT or maximal 5-HT effect (100%); for % efficacy (5-HT2C): relative efficacy vs 10 μM 5-HT or maximal 5-HT effect (100%). How it is done: 1. Human 5-HT2C Functional Assay
The functional activity of compounds of formula I was assayed by incubation with U2OS_HTR2C_β-Arrestin cells (DiscoverX, 93-0289C3) to induce beta-arrestin2 recruitment to the 5-HT2C receptor. The agonist-induced recruitment and proximity of the receptor and beta-arrestin2 leads to complementation and formation of active β-galactosidase. The enzyme complementation results in enzyme activity, which is measured following the termination of the agonist incubation using DiscoveRx's detection reagent, which contains a chemiluminescent substrate which produces a high intensity signal. Cells were plated and a medium-change to a 1% serum containing medium was performed 24 h later. The next day, test compounds were added and incubated for 1.5 h before addition of detection reagent.
The response produced was measured and compared with the response produced by 10 [mu]M 5-HT or the maximal effect induced by 5-HT (defined as 100%) to which it was expressed as a percentage response (relative efficacy).

T3 sequence (P28335 33-458): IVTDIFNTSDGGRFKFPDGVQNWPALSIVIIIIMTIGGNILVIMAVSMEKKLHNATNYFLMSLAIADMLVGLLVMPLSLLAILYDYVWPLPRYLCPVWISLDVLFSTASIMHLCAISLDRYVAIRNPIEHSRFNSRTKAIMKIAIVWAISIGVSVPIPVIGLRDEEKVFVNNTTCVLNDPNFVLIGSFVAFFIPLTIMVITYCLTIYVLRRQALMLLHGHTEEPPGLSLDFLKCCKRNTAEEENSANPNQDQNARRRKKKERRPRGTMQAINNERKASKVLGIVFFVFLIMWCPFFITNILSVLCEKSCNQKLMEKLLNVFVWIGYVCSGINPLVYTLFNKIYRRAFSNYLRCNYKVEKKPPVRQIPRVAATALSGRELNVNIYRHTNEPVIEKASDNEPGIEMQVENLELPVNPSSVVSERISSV
T3 sequence (P32121 whole entry partner): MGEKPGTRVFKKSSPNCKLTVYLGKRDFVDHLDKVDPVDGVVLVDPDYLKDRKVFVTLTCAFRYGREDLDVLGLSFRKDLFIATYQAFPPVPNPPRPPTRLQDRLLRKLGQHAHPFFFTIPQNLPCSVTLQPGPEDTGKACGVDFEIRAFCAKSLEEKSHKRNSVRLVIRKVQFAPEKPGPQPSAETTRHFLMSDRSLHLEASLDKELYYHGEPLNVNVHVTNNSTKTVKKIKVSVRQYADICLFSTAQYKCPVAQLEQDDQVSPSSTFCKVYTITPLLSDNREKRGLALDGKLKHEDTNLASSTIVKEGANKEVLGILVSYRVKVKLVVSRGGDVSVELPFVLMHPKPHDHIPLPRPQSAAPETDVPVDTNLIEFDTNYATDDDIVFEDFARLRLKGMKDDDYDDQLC

Consider `CCOCC1CCN2c3c(cccc31)CNCC2C` (centres unmarked) [Example 8, 8-(Ethoxymethyl)-4-methyl-2,3,4,6,7,8-hexahydro-1H-[1,4]diazepino[6,7,1-ij]quinoline], for which the pEC50 was < 5.00 at human 5-HT2B receptor, < 5.00 at human 5-HT2A receptor and 6.00 to 6.70 on 5-HT2C receptor. Moreover, the Emax at 5-HT2C receptor was determined as 93%.

As for `CC1CNCc2cccc3c2N1CCC3C(F)(F)F` (single isomer, unassigned) [Isomer 4.D, 4-methyl-8-(trifluoromethyl)-2,3,4,6,7,8-hexahydro-1H-[1,4]diazepino[6,7,1-ij]quinoline], the negative logarithm of the EC50 (pEC50) is 6.00 to 6.70 at human 5-HT2B receptor, < 5.00 at human 5-HT2A receptor (listed as 4.D) and 6.00 to 6.70 on 5-HT2C receptor. Besides, the “Selectivity (based on agonism) EC50 5-HT2B/EC50 5-HT2C” value at human 5-HT2B receptor (listed as 4.D) stood at 2. For the same compound, the “% efficacy (5-HT2B)” value at human 5-HT2B receptor (relative efficacy vs maximal effect of serotonin alone (100%)) was 30%. Also, on 5-HT2C receptor (listed as 4.D), the “% efficacy (5-HT2C)” value is recorded as 86%.

Regarding `COCC1CCN2c3c(cccc31)CNCC2C` (centres unmarked) [Example 9, 8-(Methoxymethyl)-4-methyl-2,3,4,6,7,8-hexahydro-1H-[1,4]diazepino[6,7,1-ij]quinoline], the pEC50 at human 5-HT2B receptor is < 5.00; at human 5-HT2A receptor, < 5.00; on 5-HT2C receptor it was 6.00 to 6.70. For the same compound, at 5-HT2C receptor, the Emax worked out at 82%.

As to `CC1CNCc2cccc3c2N1CCC3C(F)F` (single isomer, unassigned) [Isomer 5.A, 8-(difluoromethyl)-4-methyl-2,3,4,6,7,8-hexahydro-1H-[1,4]diazepino[6,7,1-ij]quinoline], on human 5-HT2B receptor, the pEC50 is 6.00 to 6.70, the “Selectivity (based on agonism) EC50 5-HT2B/EC50 5-HT2C” value was determined as 20 and the Emax was determined as 36%. Moreover, on human 5-HT2A receptor, the Emax came to 21%, the pEC50 was > 7.70 and the “Selectivity (based on agonism) EC50 5-HT2A/EC50 5-HT2C” value is listed as 0.5. Also, on 5-HT2C receptor, the pEC50 is > 7.70. The “% efficacy (5-HT2C)” value on 5-HT2C receptor (listed as 5.A) was 109%.

For the compound `CC1CNCc2cccc3c2N1CCC3CF` (centres unmarked) [Example 7, 8-(Fluoromethyl)-4-methyl-2,3,4,6,7,8-hexahydro-1H-[1,4]diazepino[6,7,1-ij]quinoline], the pEC50 at human 5-HT2B receptor was < 5.00; at human 5-HT2A receptor it was < 5.00; at 5-HT2C receptor, 6.70 to 7.70. The Emax on 5-HT2C receptor turned out to be 107%.

In the case of `CC1CNCc2cccc3c2N1CCC3C(F)(F)F` (single isomer, unassigned) [Isomer 4.C, 4-methyl-8-(trifluoromethyl)-2,3,4,6,7,8-hexahydro-1H-[1,4]diazepino[6,7,1-ij]quinoline], on human 5-HT2B receptor, the negative-log EC50 (pEC50) is 6.70 to 7.70 and the Emax turned out to be 44%. For the same compound, the “Selectivity (based on agonism) EC50 5-HT2B/EC50 5-HT2C” value at human 5-HT2B receptor (listed as 4.C) was 12. In addition, at human 5-HT2A receptor, the Emax came out at 24%, the pEC50 is 6.70 to 7.70 and the “Selectivity (based on agonism) EC50 5-HT2A/EC50 5-HT2C” value is recorded as 2. The pEC50 on 5-HT2C receptor was > 7.70. Further, the “% efficacy (5-HT2C)” value on 5-HT2C receptor (listed as 4.C) was 101%.

As for `CC1CNCc2cccc3c2N1CCC3C(F)F` (single isomer, unassigned) [Isomer 5.C, 8-(difluoromethyl)-4-methyl-2,3,4,6,7,8-hexahydro-1H-[1,4]diazepino[6,7,1-ij]quinoline], the pEC50 at human 5-HT2B receptor is < 5.00; on human 5-HT2A receptor (listed as 5.C) it was < 5.00; at 5-HT2C receptor, 6.00 to 6.70. In addition, at 5-HT2C receptor (listed as 5.C), the “% efficacy (5-HT2C)” value is 89%.

For `CC1CNCc2cccc3c2N1CCC3C(F)F` (single isomer, unassigned) [Isomer 5.D, 8-(difluoromethyl)-4-methyl-2,3,4,6,7,8-hexahydro-1H-[1,4]diazepino[6,7,1-ij]quinoline], the pEC50 at human 5-HT2B receptor was < 5.00; on human 5-HT2A receptor (listed as 5.D), < 5.00; on 5-HT2C receptor, 6.00 to 6.70. Moreover, at 5-HT2C receptor (listed as 5.D), the “% efficacy (5-HT2C)” value is reported as 84%.

As for `CC1CNCc2cccc3c2N1CCC3C(F)(F)F` (single isomer, unassigned) [Isomer 4.B, 4-methyl-8-(trifluoromethyl)-2,3,4,6,7,8-hexahydro-1H-[1,4]diazepino[6,7,1-ij]quinoline], the results for the pEC50 at human 5-HT2B receptor, on human 5-HT2A receptor (listed as 4.B) and on 5-HT2C receptor were < 5.00, < 5.00 and 6.70 to 7.70, respectively. Further, the “% efficacy (5-HT2C)” value at 5-HT2C receptor (listed as 4.B) is 87%.

Regarding `CC1CNCc2cccc3c2N1CCC3C(F)(F)F` (centres unmarked) [Example 4, 4-Methyl-8-(trifluoromethyl)-2,3,4,6,7,8-hexahydro-1H-[1,4]diazepino[6,7,1-ij]quinoline], the pEC50 at human 5-HT2B receptor is < 5.00; at human 5-HT2A receptor it was < 5.00; on 5-HT2C receptor it was 6.70 to 7.70. The Emax at 5-HT2C receptor came to 104%.

Take `CC1CNCc2cccc3c2N1CCC3C(F)F` (centres unmarked) [Example 5, 8-(Difluoromethyl)-4-methyl-2,3,4,6,7,8-hexahydro-1H-[1,4]diazepino[6,7,1-ij]quinoline]: the pEC50 at human 5-HT2B receptor is < 5.00; on human 5-HT2A receptor it was < 5.00; on 5-HT2C receptor, 6.70 to 7.70. The Emax on 5-HT2C receptor came out at 95%.

Regarding `CC1CNCc2cccc3c2N1CCC3C(F)F` (single isomer, unassigned) [Isomer 5.B, 8-(difluoromethyl)-4-methyl-2,3,4,6,7,8-hexahydro-1H-[1,4]diazepino[6,7,1-ij]quinoline], the pEC50 is < 5.00 on human 5-HT2B receptor, < 5.00 on human 5-HT2A receptor and 6.70 to 7.70 at 5-HT2C receptor. In addition, on 5-HT2C receptor (listed as 5.B), the “% efficacy (5-HT2C)” value came to 110%.

As to `CC1CNCc2cccc3c2N1CCC3C(F)(F)F` (single isomer, unassigned) [Isomer 4.A, 4-methyl-8-(trifluoromethyl)-2,3,4,6,7,8-hexahydro-1H-[1,4]diazepino[6,7,1-ij]quinoline], the pEC50 was < 5.00 on human 5-HT2B receptor, < 5.00 at human 5-HT2A receptor and > 7.70 at 5-HT2C receptor. Moreover, the Emax on 5-HT2C receptor amounted to 101%.
